Source: patent publication US8791108B2, “Inhibitors of human immunodeficiency virus replication” (priority 2011, dated 2014)

test system: recombinant NL-Rluc virus; test: Inhibition of HIV replication (NL-RLuc luciferase reporter virus, MT-2 cells); assay type: cell-based; conditions: Human immunodeficiency virus 1, MT2, 120 h, read-out: Activity

`Cc1nc2cc(C(=O)NCCC3CCCN3C)nn2c(-c2cc(F)c3c(c2C)CCCO3)c1[C@H](OC(C)(C)C)C(=O)O` (stereo partly drawn) [Example 74, (2S)-2-(tert-butoxy)-2-(7-(8-fluoro-5-methylchroman-6-yl)-5-methyl-2-((2-(1-methylpyrrolidin-2-yl)ethyl)carbamoyl)pyrazolo[1,5-a]pyrimidin-6-yl)acetic acid] and `Cc1nc2cc(C(=O)NCCN3CCCC3)nn2c(-c2cc(F)c3c(c2C)CCCO3)c1[C@H](OC(C)(C)C)C(=O)O` [Example 75, (2S)-2-(tert-butoxy)-2-(7-(8-fluoro-5-methylchroman-6-yl)-5-methyl-2-((2-(pyrrolidin-1-yl)ethyl)carbamoyl)pyrazolo[1,5-a]pyrimidin-6-yl)acetic acid] cannot be ordered by EC50: > 1 µM for the first, > 1 µM for the second.

`Cc1nc2cc(C(=O)NCCCN3CCCC3=O)nn2c(-c2cc(F)c3c(c2C)CCCO3)c1[C@H](OC(C)(C)C)C(=O)O` [Example 76] and `Cc1nc2cc(C(=O)NCCN3CCOCC3)nn2c(-c2cc(F)c3c(c2C)CCCO3)c1[C@H](OC(C)(C)C)C(=O)O` [Example 88, (2S)-2-(tert-butoxy)-2-(7-(8-fluoro-5-methylchroman-6-yl)-5-methyl-2-((2-morpholinoethyl)carbamoyl)pyrazolo[1,5-a]pyrimidin-6-yl)acetic acid] cannot be ordered by EC50: > 1 µM for the first, > 1 µM for the second.

Compared with `Cc1nc2cc(C(=O)NCC3CCCO3)nn2c(-c2cc(F)c3c(c2C)CCCO3)c1[C@H](OC(C)(C)C)C(=O)O` (stereo partly drawn) [Example 77, (2S)-2-(tert-butoxy)-2-(7-(8-fluoro-5-methylchroman-6-yl)-5-methyl-2-(((tetrahydrofuran-2-yl)methyl)carbamoyl)pyrazolo[1,5-a]pyrimidin-6-yl)acetic acid], `Cc1nc2cc(C(=O)N(C)CCC(C)C)nn2c(-c2cc(F)c3c(c2C)CCCO3)c1[C@H](OC(C)(C)C)C(=O)O` [Example 98, (2S)-2-(tert-butoxy)-2-(7-(8-fluoro-5-methylchroman-6-yl)-2-(isopentyl(methyl)carbamoyl)-5-methylpyrazolo[1,5-a]pyrimidin-6-yl)acetic acid] is lower in EC50: 0.1 to 1 µM for the first, < 0.1 µM for the second.

`Cc1nc2cc(C(=O)N3CCC(c4ccccc4)CC3)nn2c(-c2cc(F)c3c(c2C)CCCO3)c1[C@H](OC(C)(C)C)C(=O)O` [Example 78, (2S)-2-(tert-butoxy)-2-(7-(8-fluoro-5-methylchroman-6-yl)-5-methyl-2-(4-phenylpiperidine-1-carbonyl)pyrazolo[1,5-a]pyrimidin-6-yl)acetic acid] and `Cc1nc2cc(C(=O)N3CCC(c4ccc(Cl)cc4)CC3)nn2c(-c2cc(F)c3c(c2C)CCCO3)c1[C@H](OC(C)(C)C)C(=O)O` [Example 86, (2S)-2-(tert-butoxy)-2-(2-(4-(4-chlorophenyl)piperidine-1-carbonyl)-7-(8-fluoro-5-methylchroman-6-yl)-5-methylpyrazolo[1,5-a]pyrimidin-6-yl)acetic acid] cannot be ordered by EC50: < 0.1 µM for the first, < 0.1 µM for the second.

`Cc1nc2cc(C(=O)N3CCc4ccccc4C3)nn2c(-c2cc(F)c3c(c2C)CCCO3)c1[C@H](OC(C)(C)C)C(=O)O` [Example 79, (2S)-2-(tert-butoxy)-2-(7-(8-fluoro-5-methylchroman-6-yl)-5-methyl-2-(1,2,3,4-tetrahydroisoquinoline-2-carbonyl)pyrazolo[1,5-a]pyrimidin-6-yl)acetic acid] and `Cc1nc2cc(C(=O)N3CCN(c4ccccc4)CC3)nn2c(-c2cc(F)c3c(c2C)CCCO3)c1[C@H](OC(C)(C)C)C(=O)O` [Example 93, (2S)-2-(tert-butoxy)-2-(7-(8-fluoro-5-methylchroman-6-yl)-5-methyl-2-(4-phenylpiperazine-1-carbonyl)pyrazolo[1,5-a]pyrimidin-6-yl)acetic acid] cannot be ordered by EC50: < 0.1 µM for the first, < 0.1 µM for the second.

`Cc1nc2cc(C(=O)N3CCN(c4cccc(Cl)c4)CC3)nn2c(-c2cc(F)c3c(c2C)CCCO3)c1[C@H](OC(C)(C)C)C(=O)O` [Example 80, (2S)-2-(tert-butoxy)-2-(2-(4-(3-chlorophenyl)piperazine-1-carbonyl)-7-(8-fluoro-5-methylchroman-6-yl)-5-methylpyrazolo[1,5-a]pyrimidin-6-yl)acetic acid] and `Cc1nc2cc(C(=O)N3CCN(c4ccc(F)cc4)CC3)nn2c(-c2cc(F)c3c(c2C)CCCO3)c1[C@H](OC(C)(C)C)C(=O)O` [Example 87, (2S)-2-(tert-butoxy)-2-(7-(8-fluoro-5-methylchroman-6-yl)-2-(4-(4-fluorophenyl)piperazine-1-carbonyl)-5-methylpyrazolo[1,5-a]pyrimidin-6-yl)acetic acid] cannot be ordered by EC50: < 0.1 µM for the first, < 0.1 µM for the second.

`Cc1nc2cc(C(=O)NCCc3cccc(Cl)c3)nn2c(-c2cc(F)c3c(c2C)CCCO3)c1[C@H](OC(C)(C)C)C(=O)O` [Example 81, (2S)-2-(tert-butoxy)-2-(2-((3-chlorophenethyl)carbamoyl)-7-(8-fluoro-5-methylchroman-6-yl)-5-methylpyrazolo[1,5-a]pyrimidin-6-yl)acetic acid] and `Cc1nc2cc(C(=O)NCc3cccc(-n4cccc4)c3)nn2c(-c2cc(F)c3c(c2C)CCCO3)c1[C@H](OC(C)(C)C)C(=O)O` [Example 99, (2S)-2-(2-((3-(1H-pyrrol-1-yl)benzyl)carbamoyl)-7-(8-fluoro-5-methylchroman-6-yl)-5-methylpyrazolo[1,5-a]pyrimidin-6-yl)-2-(tert-butoxy)acetic acid] cannot be ordered by EC50: < 0.1 µM for the first, < 0.1 µM for the second.

`Cc1nc2cc(C(=O)NC3CCN(Cc4ccccc4)C3)nn2c(-c2cc(F)c3c(c2C)CCCO3)c1[C@H](OC(C)(C)C)C(=O)O` (stereo partly drawn) [Example 82, (2S)-2-(2-((1-benzylpyrrolidin-3-yl)carbamoyl)-7-(8-fluoro-5-methylchroman-6-yl)-5-methylpyrazolo[1,5-a]pyrimidin-6-yl)-2-(tert-butoxy)acetic acid] and `Cc1nc2cc(C(=O)N3CCN(Cc4ccccc4)CC3)nn2c(-c2cc(F)c3c(c2C)CCCO3)c1[C@H](OC(C)(C)C)C(=O)O` [Example 94, (2S)-2-(2-(4-benzylpiperazine-1-carbonyl)-7-(8-fluoro-5-methylchroman-6-yl)-5-methylpyrazolo[1,5-a]pyrimidin-6-yl)-2-(tert-butoxy)acetic acid] fall in the same range of EC50: 0.1 to 1 µM for the first, 0.1 to 1 µM for the second.

Compared with `CCN1CCN(C(=O)c2cc3nc(C)c([C@H](OC(C)(C)C)C(=O)O)c(-c4cc(F)c5c(c4C)CCCO5)n3n2)CC1` [Example 83, (2S)-2-(tert-butoxy)-2-(2-(4-ethylpiperazine-1-carbonyl)-7-(8-fluoro-5-methylchroman-6-yl)-5-methylpyrazolo[1,5-a]pyrimidin-6-yl)acetic acid], `Cc1nc2cc(C(=O)N3CCN(CCc4ccccc4)CC3)nn2c(-c2cc(F)c3c(c2C)CCCO3)c1[C@H](OC(C)(C)C)C(=O)O` [Example 90, (2S)-2-(tert-butoxy)-2-(7-(8-fluoro-5-methylchroman-6-yl)-5-methyl-2-(4-phenethylpiperazine-1-carbonyl)pyrazolo[1,5-a]pyrimidin-6-yl)acetic acid] is lower in EC50: > 1 µM for the first, 0.1 to 1 µM for the second. The second is the more potent here.

`Cc1nc2cc(C(=O)Nc3cc(-c4ccccc4)nn3C)nn2c(-c2cc(F)c3c(c2C)CCCO3)c1[C@H](OC(C)(C)C)C(=O)O` [Example 84, (2S)-2-(tert-butoxy)-2-(7-(8-fluoro-5-methylchroman-6-yl)-5-methyl-2-((1-methyl-3-phenyl-1H-pyrazol-5-yl)carbamoyl)pyrazolo[1,5-a]pyrimidin-6-yl)acetic acid] and `Cc1nccc(-c2cccc(NC(=O)c3cc4nc(C)c([C@H](OC(C)(C)C)C(=O)O)c(-c5cc(F)c6c(c5C)CCCO6)n4n3)c2)n1` [Example 85] cannot be ordered by EC50: < 0.1 µM for the first, < 0.1 µM for the second.

First: Cc1nc2cc(C(=O)N(C)CCc3ccccn3)nn2c(-c2cc(F)c3c(c2C)CCCO3)c1[C@H](OC(C)(C)C)C(=O)O [Example 89, (2S)-2-(tert-butoxy)-2-(7-(8-fluoro-5-methylchroman-6-yl)-5-methyl-2-(methyl(2-(pyridin-2-yl)ethyl)carbamoyl)pyrazolo[1,5-a]pyrimidin-6-yl)acetic acid]
Second: Cc1nc2cc(C(=O)N(C)CCc3ccccc3)nn2c(-c2cc(F)c3c(c2C)CCCO3)c1[C@H](OC(C)(C)C)C(=O)O [Example 96, (2S)-2-(tert-butoxy)-2-(7-(8-fluoro-5-methylchroman-6-yl)-5-methyl-2-(methyl(phenethyl)carbamoyl)pyrazolo[1,5-a]pyrimidin-6-yl)acetic acid]
The EC50 of the first is higher: > 1 µM for the first, < 0.1 µM for the second. The second is the more potent here.

`Cc1nc2cc(C(=O)N3CCN(CCN4CCOCC4)CC3)nn2c(-c2cc(F)c3c(c2C)CCCO3)c1[C@H](OC(C)(C)C)C(=O)O` [Example 91, (2S)-2-(tert-butoxy)-2-(7-(8-fluoro-5-methylchroman-6-yl)-5-methyl-2-(4-(2-morpholinoethyl)piperazine-1-carbonyl)pyrazolo[1,5-a]pyrimidin-6-yl)acetic acid] and `Cc1nc2cc(C(=O)N3CCC(N4CCCCC4)CC3)nn2c(-c2cc(F)c3c(c2C)CCCO3)c1[C@H](OC(C)(C)C)C(=O)O` [Example 95, (2S)-2-(2-([1,4′-bipiperidine]-1′-carbonyl)-7-(8-fluoro-5-methylchroman-6-yl)-5-methylpyrazolo[1,5-a]pyrimidin-6-yl)-2-(tert-butoxy)acetic acid] cannot be ordered by EC50: > 1 µM for the first, > 1 µM for the second.

`Cc1nc2cc(C(=O)N3CCN(Cc4ccc5c(c4)OCO5)CC3)nn2c(-c2cc(F)c3c(c2C)CCCO3)c1[C@H](OC(C)(C)C)C(=O)O` [Example 92, (2S)-2-(2-(4-(benzo[d][1,3]dioxol-5-ylmethyl)piperazine-1-carbonyl)-7-(8-fluoro-5-methylchroman-6-yl)-5-methylpyrazolo[1,5-a]pyrimidin-6-yl)-2-(tert-butoxy)acetic acid] and `Cc1nc2cc(C(=O)NCc3cccc(N4CCOCC4)c3)nn2c(-c2cc(F)c3c(c2C)CCCO3)c1[C@H](OC(C)(C)C)C(=O)O` [Example 100] fall in the same range of EC50: 0.1 to 1 µM for the first, 0.1 to 1 µM for the second.

For `Cc1nc2cc(C(=O)N(C)Cc3cccnc3)nn2c(-c2cc(F)c3c(c2C)CCCO3)c1[C@H](OC(C)(C)C)C(=O)O` [Example 97, (2S)-2-(tert-butoxy)-2-(7-(8-fluoro-5-methylchroman-6-yl)-5-methyl-2-(methyl(pyridin-3-ylmethyl)carbamoyl)pyrazolo[1,5-a]pyrimidin-6-yl)acetic acid], the EC50 was > 1 µM.

same assay, conditions: Human immunodeficiency virus 1, MT2, 120 h, read-out: EC50 μM

First: Cc1nccc(-c2cccc(NC(=O)c3cc4nc(C)c([C@H](OC(C)(C)C)C(=O)O)c(-c5cc(F)c6c(c5C)CCCO6)n4n3)c2)n1 [Example 85]
Second: Cc1nc2cc(C(=O)N(C)CCc3ccccc3)nn2c(-c2cc(F)c3c(c2C)CCCO3)c1[C@H](OC(C)(C)C)C(=O)O [Example 96, (2S)-2-(tert-butoxy)-2-(7-(8-fluoro-5-methylchroman-6-yl)-5-methyl-2-(methyl(phenethyl)carbamoyl)pyrazolo[1,5-a]pyrimidin-6-yl)acetic acid]
The EC50 of the first is 4.8-fold lower: 0.016 µM for the first, 0.077 µM for the second.
